Reference: patent US20020137929A1, “1 - (3-heterocyclylphenyl) isothiourea, -isourea, -guanidine and -amidine herbicidal agents” (Intellectual Property Department, BASF Aktiengesellschaft, priority 1998, published 2002)

Experiments:
SETVI (Foxtail, Green) [1] = experiment: Postemergence herbicidal evaluation; format: in vivo, Setaria viridis
Outline: (§1)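 First, seedlings were raised for around two weeks. Next, test material in 50/50 acetone/water containing 0.5% TWEEN 20 was sprayed through a nozzle at 40 psi, equivalent to about 0.0156–0.500 kg/ha. Finally, after 4–5 weeks in the greenhouse, plants were rated 0–9.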

ORYSAT (Rice, Tebonnet) = experiment: Postemergence herbicidal evaluation; format: in vivo, Oryza sativa, (L.) Tebonnet
Outline: as §1

ZEAMX (Corn, Field) [2] = experiment: Postemergence herbicidal evaluation; format: in vivo, Zea mays
Outline: as §1

ECHCG (Barnyardgrass) = experiment: Preemergence herbicidal evaluation; format: in vivo, Echinochloa crus-galli; settings: rated 4-5 weeks after treatment
Outline: (§2)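 Scores (0–9) reflect visual comparison with control plants for stand, vigor, malformation, size and chlorosis. Compound was applied to the soil after sowing, before emergence, as an aqueous acetone spray (about 0.0156–0.500 kg/ha), and cups were kept in a greenhouse for 4–5 weeks.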

SETVI (Foxtail, Green) [3] = experiment: Preemergence herbicidal evaluation; format: in vivo, Setaria viridis; settings: rated 4-5 weeks after treatment
Outline: as §2

[4] = tested on: TRZAWR (Wheat, Winter, cv Riband); experiment: Preemergence herbicidal evaluation; format: in vivo, Triticum aestivum; settings: rated 4-5 weeks after treatment
Outline: as §2

ZEAMX (Corn, Field) [5] = experiment: Preemergence herbicidal evaluation; format: in vivo, Zea mays; settings: rated 4-5 weeks after treatment
Outline: as §2

[6] = tested on: ECHORC (Watergrass (Calif.)); experiment: Preemergence weed control under flooded paddy conditions; format: in vivo, Echinochloa oryzoides; settings: rated 3-4 weeks after treatment
Outline: (§3)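 Flooded-pot preemergence screen with silt loam and seeds in the upper 0.5 cm. Dose about 0.0313 to 0.500 kg/ha, delivered into flood water; visual 0-9 score after 3 to 4 weeks.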

CYPIR (Rice Flatsedge) [7] = experiment: as above; format: in vivo, Cyperus iria; settings: rated 3-4 weeks after treatment
Outline: as §3

CYPSE (Flatsedge) [8] = experiment: as above; format: in vivo, Cyperus serotinus; settings: rated 3-4 weeks after treatment
Outline: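 Seeds or propagules sown in top 0.5 cm of silt loam soil, flooded 1.5 to 3 cm above surface throughout. Compound in 50/50 v/v aqueous/acetone pipetted into flood water at about 0.0313 to 0.500 kg/ha. Visual 0-9 rating versus control after three to four weeks in greenhouse.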

[9] = tested on: ECHORC (Watergrass (Calif.)); experiment: Postemergence weed control under flooded paddy conditions; format: in vivo, Echinochloa oryzoides; settings: postemergence weeds, 3-4 weeks after treatment
Outline: (§4)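 Containers holding 3–5 cm weeds and rice at 1.5–2.5 leaves are flooded to 1.5–3 cm above soil. Compound in 50/50 v/v aqueous/acetone is then added directly to the water, about 0.0313–0.500 kg/ha. Plants are kept in the greenhouse and rated 0–9 visually at 3–4 weeks.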

CYPIR (Rice Flatsedge) [10] = experiment: as above; format: in vivo, Cyperus iria; settings: postemergence weeds, 3-4 weeks after treatment
Outline: as §4

CYPSE (Flatsedge) [11] = experiment: as above; format: in vivo, Cyperus serotinus; settings: postemergence weeds, 3-4 weeks after treatment
Outline: as §4

[12] = tested on: SAGPY (Arrowhead (Pygmaea)); experiment: as above; format: in vivo, Sagittaria pygmaea; settings: postemergence weeds, 3-4 weeks after treatment
Outline: as §4

For `O=C(O)CC1SC(=Nc2cc(N3C(=O)C4=C(CCCC4)C3=O)c(F)cc2Cl)N(CC(=O)O)C1=O` (stereo not shown) [Compound 48, 2-{[2-Chloro-5-(1-cyclohexene-1,2-dicarboximido)-4-fluorophenyl]imino}-4-oxo-3,5-thiazolidinediacetic acid], the “Postemergence herbicidal rating SETVI” value (SETVI (Foxtail, Green) [1]; Rate 0.0156 kg/ha) was 0.0, the “Postemergence herbicidal rating SETVI” value (SETVI (Foxtail, Green) [1]; Rate 0.0313 kg/ha) was 0.0 and the “Postemergence herbicidal rating SETVI” value (SETVI (Foxtail, Green) [1]; Rate 0.0625 kg/ha) was 2.0. The “Postemergence herbicidal rating ORYSAT” value (ORYSAT (Rice, Tebonnet); Rate 0.0156 kg/ha) was 0.5, the “Postemergence herbicidal rating ORYSAT” value (ORYSAT (Rice, Tebonnet); Rate 0.0313 kg/ha) was 0.5 and the “Postemergence herbicidal rating ORYSAT” value (ORYSAT (Rice, Tebonnet); Rate 0.0625 kg/ha) was 2.0. For the same molecule, the “Postemergence herbicidal rating ZEAMX” value (ZEAMX (Corn, Field) [2]; Rate 0.0156 kg/ha) was 5.5, the “Postemergence herbicidal rating ZEAMX” value (ZEAMX (Corn, Field) [2]; Rate 0.0313 kg/ha) was 5.5 and the “Postemergence herbicidal rating ZEAMX” value (ZEAMX (Corn, Field) [2]; Rate 0.0625 kg/ha) was 6.5. The “Preemergence herbicidal rating ECHCG” value (ECHCG (Barnyardgrass); rate 0.0156 kg/ha) was 0.0, the “Preemergence herbicidal rating ECHCG” value (ECHCG (Barnyardgrass); rate 0.0313 kg/ha) was 0.0 and the “Preemergence herbicidal rating ECHCG” value (ECHCG (Barnyardgrass); rate 0.0625 kg/ha) was 0.0. For the same molecule, the “Preemergence herbicidal rating ECHCG” value (ECHCG (Barnyardgrass); rate 0.1250 kg/ha) was 0.0, the “Preemergence herbicidal rating ECHCG” value (ECHCG (Barnyardgrass); rate 0.2500 kg/ha) was 0.0 and the “Preemergence herbicidal rating SETVI” value (SETVI (Foxtail, Green) [3]; rate 0.0156 kg/ha) was 0.0. The “Preemergence herbicidal rating SETVI” value (SETVI (Foxtail, Green) [3]; rate 0.0313 kg/ha) was 0.0, the “Preemergence herbicidal rating SETVI” value (SETVI (Foxtail, Green) [3]; rate 0.0625 kg/ha) was 0.0 and the “Preemergence herbicidal rating SETVI” value (SETVI (Foxtail, Green) [3]; rate 0.1250 kg/ha) was 0.0. For the same molecule, the “Preemergence herbicidal rating SETVI” value (SETVI (Foxtail, Green) [3]; rate 0.2500 kg/ha) was 0.0, the “Preemergence herbicidal rating TRZAWR” value ([4]; rate 0.0156 kg/ha) was 0.0 and the “Preemergence herbicidal rating TRZAWR” value ([4]; rate 0.0313 kg/ha) was 0.0. For the same molecule, the “Preemergence herbicidal rating TRZAWR” value ([4]; rate 0.0625 kg/ha) was 0.0, the “Preemergence herbicidal rating TRZAWR” value ([4]; rate 0.1250 kg/ha) was 0.0 and the “Preemergence herbicidal rating TRZAWR” value ([4]; rate 0.2500 kg/ha) was 2.0. For the same molecule, the “Preemergence herbicidal rating ZEAMX” value (ZEAMX (Corn, Field) [5]; rate 0.0156 kg/ha) was 0.0, the “Preemergence herbicidal rating ZEAMX” value (ZEAMX (Corn, Field) [5]; rate 0.0313 kg/ha) was 0.0 and the “Preemergence herbicidal rating ZEAMX” value (ZEAMX (Corn, Field) [5]; rate 0.0625 kg/ha) was 0.0. For the same molecule, the “Preemergence herbicidal rating ZEAMX” value (ZEAMX (Corn, Field) [5]; rate 0.1250 kg/ha) was 0.0, the “Preemergence herbicidal rating ZEAMX” value (ZEAMX (Corn, Field) [5]; rate 0.2500 kg/ha) was 2.0 and the “Herbicidal rating ECHORC” value ([6]; 0.1250 kg/ha) was 3.0. For the same molecule, the “Herbicidal rating ECHORC” value ([6]; 0.2500 kg/ha) was 6.0, the “Herbicidal rating CYPIR” value (CYPIR (Rice Flatsedge) [7]; 0.1250 kg/ha) was 2.0 and the “Herbicidal rating CYPIR” value (CYPIR (Rice Flatsedge) [7]; 0.2500 kg/ha) was 5.0. The “Herbicidal rating CYPSE” value (CYPSE (Flatsedge) [8]; 0.1250 kg/ha) was 0.0, the “Herbicidal rating CYPSE” value (CYPSE (Flatsedge) [8]; 0.2500 kg/ha) was 0.0 and the “Herbicidal rating ECHORC” value ([9]; rate 0.1250 kg/ha) was 3.0. The “Herbicidal rating ECHORC” value ([9]; rate 0.2500 kg/ha) was 6.0, the “Herbicidal rating CYPIR” value (CYPIR (Rice Flatsedge) [10]; rate 0.1250 kg/ha) was 2.0 and the “Herbicidal rating CYPIR” value (CYPIR (Rice Flatsedge) [10]; rate 0.2500 kg/ha) was 5.0. For the same molecule, the “Herbicidal rating CYPSE” value (CYPSE (Flatsedge) [11]; rate 0.1250 kg/ha) was 0.0, the “Herbicidal rating CYPSE” value (CYPSE (Flatsedge) [11]; rate 0.2500 kg/ha) was 0.0 and the “Herbicidal rating SAGPY” value ([12]; rate 0.1250 kg/ha) was 3.0. The “Herbicidal rating SAGPY” value ([12]; rate 0.2500 kg/ha) was 6.0.
